Data as given in patent publication US20240228920A1, “Distilled Spirit with modified Alcohol Levels with or without a Functional Ingredient” (priority 2023, published 2024).

What was measured:
MAO A = molecular target: T1, MAO A (Homo sapiens, UniProt P21397); assay: MAO A inhibitory activity assay; format: biochemical; details: terpene at 0.5% (v/v) in Don Julio Añejo (40% ABV) minus in 40% ethanol
T1 sequence (P21397 1-527): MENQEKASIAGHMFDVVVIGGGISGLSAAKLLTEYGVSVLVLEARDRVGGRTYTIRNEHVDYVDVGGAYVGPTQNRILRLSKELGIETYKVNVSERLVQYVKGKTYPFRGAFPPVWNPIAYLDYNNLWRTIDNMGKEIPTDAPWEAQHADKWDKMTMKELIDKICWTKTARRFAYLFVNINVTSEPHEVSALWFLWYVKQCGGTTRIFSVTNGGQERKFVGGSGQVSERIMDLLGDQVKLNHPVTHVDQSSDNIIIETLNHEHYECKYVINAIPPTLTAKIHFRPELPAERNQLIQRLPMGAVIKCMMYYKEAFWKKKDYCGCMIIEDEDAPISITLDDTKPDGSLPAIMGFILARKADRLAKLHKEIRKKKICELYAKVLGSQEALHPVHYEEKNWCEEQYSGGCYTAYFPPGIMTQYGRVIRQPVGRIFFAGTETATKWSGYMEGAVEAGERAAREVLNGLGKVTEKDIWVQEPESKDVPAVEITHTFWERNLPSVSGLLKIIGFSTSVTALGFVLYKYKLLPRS
Description: (§1) U.S. […] The contents of this document are incorporated herein by reference, but briefly, methods that include reverse osmosis and low-pressure evaporation to provide retentates with significant concentrations of these inhibitors are described. In addition, details of assay methods for monoamine oxidase activity (and therefore inhibition thereof) and for ethanol content are provided. The effect of compounds on MAOI activity in tequila was evaluated in the experiment from Table 3.

MAO B = molecular target: T2, MAO B (Homo sapiens, UniProt P27338); assay: MAO B inhibitory activity assay; format: biochemical; details: terpene at 0.5% (v/v) in Don Julio Añejo (40% ABV) minus in 40% ethanol
T2 sequence (P27338 1-520): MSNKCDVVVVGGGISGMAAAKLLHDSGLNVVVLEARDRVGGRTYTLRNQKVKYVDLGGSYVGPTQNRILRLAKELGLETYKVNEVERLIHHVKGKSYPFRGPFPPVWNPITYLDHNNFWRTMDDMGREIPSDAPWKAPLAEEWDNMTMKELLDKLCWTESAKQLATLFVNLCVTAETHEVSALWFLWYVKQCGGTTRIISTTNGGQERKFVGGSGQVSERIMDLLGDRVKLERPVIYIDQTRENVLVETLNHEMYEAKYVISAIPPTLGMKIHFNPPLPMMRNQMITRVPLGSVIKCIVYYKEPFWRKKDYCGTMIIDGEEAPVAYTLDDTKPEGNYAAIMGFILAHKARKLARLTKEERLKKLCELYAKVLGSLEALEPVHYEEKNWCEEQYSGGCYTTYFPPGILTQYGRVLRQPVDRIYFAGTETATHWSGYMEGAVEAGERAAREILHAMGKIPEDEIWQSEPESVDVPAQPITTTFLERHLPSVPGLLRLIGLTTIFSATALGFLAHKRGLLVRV
Description: as §1

Δ % Inhibition MAO A (DJA + terpene) − (ETOH + terpene) (MAO A) | Δ % Inhibition MAO B (DJA + terpene) − (ETOH + terpene) (MAO B) | Compound
5% | 11% | C=CC(=C)CCC=C(C)C [β-myrcene]
1% | 9% | CC1=CCC(=C(C)C)CC1 [terpinolene]
4% | 9% | Geramol
9% | 20% | C=C(C)[C@@H]1CCC2=CCC[C@@H](C)[C@]2(C)C1 [valencene]

Compound | Δ % Inhibition MAO A (DJA + terpene) − (ETOH + terpene) (MAO A) | Δ % Inhibition MAO B (DJA + terpene) − (ETOH + terpene) (MAO B)
CC(C)=CCCC(C)=CC=O [citral] | 0% | 2%
C=CCc1ccc(O)c(OC)c1 [eugenol] | 1% | 8%
